Data from ChEMBL document CHEMBL6092217 (Eur J Med Chem, 2024).
Active and inactive are the calls of the source. No cut-off for these calls is given here.

What was measured:
MCF7 = test: Antiproliferative activity against human MCF7 cells assessed as cell viability incubated for 72 hrs by MTT assay; format: functional, cell-based; details: MCF7, 72 h
A549 = test: Inhibition of cell migration in human A549 cells incubated for 24 hrs by wound healing assay; format: functional, cell-based; details: dose 50-100 nM
[1] = Toxicity in ICR mouse assessed as effect on WBC count at 10 to 40 mg/kg, iv administered every 2 days and measured after 14 days; format: organism-based; details: in vivo, 336 h, dose 10-40 mg/kg, time 14 day
HT-29 [2] = test: Antitumor activity against human HT-29 cells xenografted in BALB/c mouse assessed as reduction in Ki67 expression at 10 to 40 mg/kg, iv measured after 21 days by immunohistochemical analysis; format: functional, organism-based; details: dose 10-40 mg/kg, time 21.0 day
HT-29 [3] = test: Induction of cell cycle arrest in human HT-29 cells assessed as accumulation of cells at G1 phase at 50 nM incubated for 24 hrs by flow cytometry analysis (reference value: 67.6%); format: functional
HT-29 [4] = test: Induction of cell cycle arrest in human HT-29 cells assessed as effect on CDC2 expression at 50 to 200 nM incubated for 24 hrs by Western blot analysis; format: functional, cell-based; details: dose 50-200 nM
HT-29 [5] = test: Induction of cell cycle arrest in human HT-29 cells assessed as accumulation of cells at G2 phase at 200 nM incubated for 24 hrs by flow cytometry analysis (reference value: 13 %); format: functional
HT-29 [6] = test: Induction of apoptosis in human HT-29 cells assessed as viable cells at 200 nM incubated for 24 hrs by FITC/PI staining based flow cytometry analysis (reference value: 91.6%); format: functional; details: read-out: Activity
HT-29 [7] = test: Induction of ROS accumulation in human HT-29 cells incubated for 24 hrs by DCFH-DA staining based microscopic analysis; format: functional, cell-based; details: dose 50-100 nM
HT-29 [8] = test: Induction of apoptosis in human HT-29 cells assessed as downregulation of Bcl-2 level at 50 to 200 nM incubated for 24 hrs by Western blot analysis; format: functional, cell-based; details: dose 50-200 nM
[9] = Half life in Sprague-Dawley rat at 5 mg/kg, iv measured upto 24 hrs by HPLC-MS analysis; format: ADME, organism-based; details: in vivo
[10] = Toxicity in ICR mouse assessed as effect on lymphocytes count at 10 to 40 mg/kg, iv administered every 2 days and measured after 14 days; format: organism-based; details: in vivo, 336 h, dose 10-40 mg/kg, time 14 day
HT-29 [11] = test: Induction of cell cycle arrest in human HT-29 cells assessed as increase in cyclin-B1 expression incubated for 24 hrs by Western blot analysis; format: functional, cell-based; details: dose 50-200 nM
RKO = test: Antiproliferative activity against human RKO cells assessed as cell viability incubated for 72 hrs by MTT assay; format: functional, cell-based
HT-29 [12] = test: Induction of apoptosis in human HT-29 cells assessed as late apoptotic cells at 200 nM incubated for 24 hrs by FITC/PI staining based flow cytometry analysis (reference value: 0.20%); format: functional
[13] = Volume of distribution at steady state in Sprague-Dawley rat at 5 mg/kg, iv measured upto 24 hrs by HPLC-MS analysis; format: ADME, organism-based; details: in vivo, read-out: Vdss
[14] = Resistance index, ratio of IC50 for human A549/TxR cells to IC50 for human A549 cells; format: functional
HT-29 [15] = test: Antitumor activity against human HT-29 cells xenografted in BALB/c mouse assessed as tumor growth inhibition at 40 mg/kg, iv measured after 21 days; format: functional; details: HT-29, 504 h, time 21 day, read-out: TGI
[16] = MRT (0 to t) in Sprague-Dawley rat at 5 mg/kg, iv measured upto 24 hrs by HPLC-MS analysis; format: ADME, organism-based; details: in vivo
[17] = Toxicity in ICR mouse assessed as effect on AST level at 10 to 40 mg/kg, iv administered every 2 days and measured after 14 days; format: organism-based; details: in vivo, 336 h, dose 10-40 mg/kg, time 14 day
[18] = Toxicity in ICR mouse assessed as effect on BUN level at 10 to 40 mg/kg, iv administered every 2 days and measured after 14 days; format: organism-based; details: in vivo, 336 h, dose 10-40 mg/kg, time 14 day
HT-29 [19] = test: Induction of cell cycle arrest in human HT-29 cells assessed as accumulation of cells at S phase at 200 nM incubated for 24 hrs by flow cytometry analysis (reference value: 20.8 %); format: functional
Tubulin (Homo sapiens) [20] = target: T1, Tubulin (Homo sapiens) (UniProt P68371+Q9H4B7+P0DPH7+P68366+Q13509+Q71U36+P04350+Q3ZCM7+P07437+P68363+Q9BQE3+Q6PEY2+Q13885+Q9BVA1+Q9BUF5); test: Inhibition of tubulin polymerization in human HT-29 cells assessed as reduction in beta-tubulin expression 50 to 200 nM incubated for 24 hrs by Western blot analysis; format: cell-based; details: dose 50-200 nM
MDA-MB-231 = test: cells; details: Homo sapiens, MDA-MB-231, 72 h
Description: Antiproliferative activity against human MDA-MB-231 cells assessed as cell viability incubated for 72 hrs by MTT assay

[21] = Toxicity in ICR mouse assessed as effect on LDH level at 10 to 40 mg/kg, iv administered every 2 days and measured after 14 days; format: organism-based; details: in vivo, 336 h, dose 10-40 mg/kg, time 14 day
[22] = Toxicity in BALB/c mouse assessed as lung damage at 10 to 40 mg/kg, iv measured after 21 days by H and E staining based analysis; format: organism-based; details: in vivo, 504 h, dose 10-40 mg/kg, time 21 day
HT-29 [23] = test: Induction of apoptosis in human HT-29 cells assessed as upregulation of Bax level at 50 to 200 nM incubated for 24 hrs by Western blot analysis; format: functional, cell-based; details: dose 50-200 nM
Tubulin (Homo sapiens) [24] = target: T1, Tubulin (Homo sapiens); test: Disruption of microtubule network in human HT-29 cells incubated for 8 hrs by DAPI staining based confocal microscopic analysis; format: cell-based; details: dose 50-200 nM
HT-29 [25] = test: Antiproliferative activity against human HT-29 cells assessed as cell viability incubated for 72 hrs by MTT assay; format: functional, cell-based; details: HT-29, 72 h
[26] = Toxicity in BALB/c mouse assessed as spleen damage at 10 to 40 mg/kg, iv measured after 21 days by H and E staining based analysis; format: organism-based; details: in vivo, 504 h, dose 10-40 mg/kg, time 21 day
HT-29 [27] = test: Induction of apoptosis in human HT-29 cells assessed as late apoptotic cells at 50 nM incubated for 24 hrs by FITC/PI staining based flow cytometry analysis (reference value: 0.20%); format: functional
[28] = Toxicity in ICR mouse assessed as effect on monocyte count at 10 to 40 mg/kg, iv administered every 2 days and measured after 14 days; format: organism-based; details: in vivo, 336 h, dose 10-40 mg/kg, time 14 day
[29] = Toxicity in ICR mouse assessed as effect on RBC count at 10 to 40 mg/kg, iv administered every 2 days and measured after 14 days; format: organism-based; details: in vivo, 336 h, dose 10-40 mg/kg, time 14 day
HT-29 [30] = test: Induction of apoptosis in human HT-29 cells assessed as viable cells at 50 nM incubated for 24 hrs by FITC/PI staining based flow cytometry analysis (reference value: 91.6%); format: functional; details: read-out: Activity
[31] = Toxicity in BALB/c mouse assessed as liver damage at 10 to 40 mg/kg, iv measured after 21 days by H and E staining based analysis; format: organism-based; details: in vivo, 504 h, dose 10-40 mg/kg, time 21 day
[32] = Toxicity in ICR mouse assessed as effect on CREA level at 10 to 40 mg/kg, iv administered every 2 days and measured after 14 days; format: organism-based; details: in vivo, 336 h, dose 10-40 mg/kg, time 14 day
HT-29 [33] = test: Induction of apoptosis in human HT-29 cells assessed as upregulation of cleaved caspase 3 level at 50 to 200 nM incubated for 24 hrs by Western blot analysis; format: functional, cell-based; details: dose 50-200 nM

## COc1ccc(N(C)c2nc(/C=C/c3cccc(OC)c3)nc3ccccc23)cc1
MCF7
  IC50: 0.11 µM
A549
  inhibition: Dose-dependent-effect
[1]
  Activity: Non-toxic
HT-29 [2]
  Activity: Active
HT-29 [3]
  Activity: 64.6%
HT-29 [4]
  Activity: inactive
HT-29 [5]
  Activity: 69.8%
HT-29 [6]
  viability at 0.2 µM: 43.2%
HT-29 [7]
  Activity: Dose-dependent-effect
HT-29 [8]
  Activity: Active
[9]
  half-life: 30.6 min
[10]
  Activity: Non-toxic
HT-29 [11]
  Activity: Dose-dependent-effect
RKO
  IC50: 0.1 µM
HT-29 [12]
  Activity: 37.3%
[13]
  Vd: 1.03 L/kg
[14]
  Ratio IC50: 2.53
HT-29 [15]
  inhibition in vivo at 40 mg/kg: 74.2%
[16]
  MRT last at 24 h: 46.8 min
[17]
  Activity: Non-toxic
[18]
  Activity: Non-toxic
HT-29 [19]
  Activity: 7.31%
Tubulin (Homo sapiens) [20]
  inhibition: Active
MDA-MB-231
  IC50: 0.44 µM
[21]
  Activity: Non-toxic
[22]
  Activity: Non-toxic
HT-29 [23]
  Activity: Active
Tubulin (Homo sapiens) [24]
  Activity: Dose-dependent-effect
HT-29 [25]
  IC50: 0.051 µM
[26]
  Activity: Non-toxic
HT-29 [27]
  Activity: 13.6%
[28]
  Activity: Non-toxic
[29]
  Activity: Non-toxic
HT-29 [30]
  viability at 0.05 µM: 72%
[31]
  Activity: Non-toxic
[32]
  Activity: Non-toxic
HT-29 [33]
  Activity: Active
